In patent US20260240826A1, “COMPOSITIONS FOR PD-L1 INHIBITION AND METHODS OF USE THEREOF” (ARIZONA BOARD OF REGENTS ON BEHALF OF THE UNIVERSITY OF …, priority 2023, published 2026):
Entries after “also recorded” stand apart in the source; their conditions may differ.

Assays:
[1] = system: AP-1 luciferase reporter HaCaT cells; experiment: AP-1 reporter luciferase assay in HaCaT keratinocytes; type: cell-based, human; conditions: harvest 12 hr after UVB
Description: HaCaT cells stably transfected with the TRE-driven luciferase plasmid (“AP-1 luciferase” cells) were seeded in 6-well plates, grown to 70% confluence and serum starved overnight to reduce background signaling. Cells were pretreated with BMS-202 or vehicle (DMSO) for 1 hr, then washed twice with PBS prior to exposure to […]. Cells were then washed once more with PBS before being placed into fresh starvation media with vehicle or BMS-202 until harvest 12 hr later. Cells were lysed in Promega's Cell Culture Lysis Buffer (1×), and a total of 10 μg protein per sample replicate was assayed for luciferase activity according to the manufacturer's instructions for the Luciferase Assay System (Promega) using a TD 20/20 luminometer (Turner Designs). Experimental triplicates were averaged and the means from each independent experiment were analyzed by Student's t-test for statistical significance. Results are representative of three independent experiments.

PD-L1 [2] = experiment: PD-L1 immunohistochemistry of SKH-1 mouse skin; type: in vivo; conditions: topical 8 mM pre/post; 24 hr post SSL
Description: UVB exposure was performed on AP-1 luciferase reporter mice on the SKH-1 genetic background at a dose of 2.75 kJ/m2 using FS40 bulbs (Q-Lab Corporation) as described before with the modification that mice were imaged 24 hr post UVB exposure using whole body bioluminescence instead of 48 hr post UVB using ear punches. SSL irradiation of SKH-1 mice (Charles River Laboratories, strain code 477) at a dose of 90 kJ/m2 UVA/6 kJ/m2 UVB was performed using UVA-340 bulbs (Q-Lab Corporation) as described before.
PD-L1: IHC staining for PD-L1 in mouse skins was performed using the NBP1-43262 antibody (Novus). Epidermal PD-L1 expression is shown as percent staining determined by ImageJ (NIH, open source) quantification using color deconvolution of the brown stain with a uniform threshold between all samples. Each skin sample (n=3, 20× field) was used to measure at least 3 fields per specimen with the exclusion of hair follicles, if present.
Mouse IHC data were analyzed using Kruskal-Wallis non-parametric data analysis (GraphPad Prism 10.0 software). IHC images shown are magnified according to the 100 μm scale bar contained in the respective panel as specified throughout the figure legends.

PD-L1 [3] = experiment: SSL-induced PD-L1 expression in HaCaT keratinocytes (mRNA, immunoblot); type: cell-based, human; conditions: 24 hr after SSL
Description: Human HaCaT immortalized keratinocytes were maintained in DMEM with 10% FBS and 1× penicillin/streptomycin. Cells were authenticated using STR profiling and tested for mycoplasma regularly. Cells were seeded onto […] at a density of ~200 k/dish and grown for 3 days. Prior to treatment, cells were serum starved overnight to enhance the UV responsiveness of signaling. Cells were ~80% confluent at the time of treatment. BMS-202 (10 μM) in DMSO was added to the media 1 hr prior to SSL (pretreatment).
For SSL treatment, UVA-340 bulbs (Q-Lab Corporation) were used. Before exposure, cells were washed with 1×PBS and then incubated in 4 mL PBS (with 0.01% MgCl2 and 0.01% CaCl2) during irradiation. Cells were exposed to 40 kJ/m2 UVA/2.68 kJ/m2 UVB, then rinsed once more with PBS prior to being placed back into DMEM with 1% FBS+penicillin/streptomycin and vehicle or BMS-202 (post-treatment) and incubated until harvest 24 hr later. Control cells underwent identical processing, except were held in the biosafety cabinet without UV exposure.
Cells were lysed in RIPA containing 1×HALT protease+phosphatase inhibitor cocktail (ThermoFisher Scientific) and 100 mM PMSF and protein concentrations were assessed using BCA assay (Bio-Rad). Mouse epidermal protein lysates for immunoblot analysis were derived from scraped frozen SKH-1 skins as described previously (Blohm-Mangone et al., 2018). […]

## COc1nc(OCc2cccc(-c3ccccc3)c2C)ccc1CNCCNC(C)=O [BMS-202]
[1]
  UVB-induced AP-1 luciferase signal intensity: significant inhibition
PD-L1 [2]
  epidermal PD-L1 staining (IHC): pronounced inhibition
PD-L1 [3]
  SSL-induced PD-L1 mRNA expression: blocked; also recorded: suppressed dose-dependently
  SSL-induced PD-L1 protein expression (immunoblot): blocked
